Laboratory results: patent publication US11739053B2, “P62-ZZ chemical inhibitor” (ID4PHARMA, LLC, priority 2011, dated 2023)

How the values were obtained:
IL-6 production = assay: TNF-α induced IL-6 production by marrow stromal cells, ELISA; assay type: cell-based, human; conditions: normal human stromal cells, FIG. 5B
Protocol: FIG. 5A-B: 5A. VCAM-1 expression using Western blot analysis. Normal human stromal cells were cultured with/without TNF and p62-ZZ inhibitors (#1-6) for 48 hours. The cell lysates were collected and VCAM-1 expression was measured using an anti-VCAM-1 antibody (Santa Cruz). FIG. 5B. IL-6 production by human and mouse marrow stromal cells by ELISA. Normal human and mouse marrow stromal cells were cultured with/without TNFα and p62-ZZ inhibitors (#1-6) for 48 hours. The cell culture media were collected and IL-6 production measured using an IL-6 ELISA kit (R &D). Data are shown as the means (n=2).
Normal human or mouse marrow stromal cells were maintained in 10% FBS-IMDM and treated with p62-ZZ inhibitors (#1-6) for 3 hours. Then TNFα or vehicle was added for 48 hours. Cell lysates were collected and VCAM-1 expression measured by Western blot using an anti-VCAM-1 antibody (Santa Cruz). The culture media were collected and IL-6 production was measured using an IL-6 ELISA kit (R&D Company).

[1] = test system: GFP-labeled human myeloma MM1.S cells; assay: GFP-labeled MM1.S myeloma cell growth with/without stromal cells, fluorescence microscopy; assay type: cell-based; conditions: 10 μM, 72 hours, FIG. 3
Protocol: FIG. 3 is a graph depicting MM cell growth inhibition. Data is shown as the mean±SD (n=5). *: P<0.01 compared to no-inhibitor cultures without stromal cells. **: P<0.01 compared to no-treatment co-cultured with stromal cells.
Compound 3 was tested for its capacity to block MM-stimulated signaling in marrow stromal cells, thereby resulting in less bone destruction and MM growth. The effects of the compound 3 on GFP-labeled MM1.S myeloma cell growth with/without stromal cells, IL-6 and VCAM-1 expression on stromal cells induced by TNF-α and OCL formation, and TNF-α induced PKCζ phosphorylation, the specific kinase enzyme activated p62-ZZ, were examined. GFP-labeled MM1.S myeloma cells or normal human CFU-GM, a source of OCL precursors, were then co-cultured with human stromal cells with the p62-ZZ inhibitor. The 10 μM of inhibitor compound 3 blocked MM cell growth by 90% compared to vehicle (0.1% DMSO). […] VCAM-1 expression and IL-6 production induced by TNF-α on stromal cells was blocked by 30% and 90% respectively compared to vehicle levels. Furthermore, TNF-α induced PKC, phosphorylation blocked was in stromal cells and MM1.S when pre-treated with this p62-ZZ inhibitory compound for 3 hours.
Primary human bone marrow stromal cells were maintained in 10% FCS-IMDM. Stromal cells (1.5×10^3 cells/well) were cultured one day prior to the start of co-culture. Green fluorescent protein (GFP)-labeled human myeloma MM1.S cells (7.5×10^3 cells/well) were then cultured with/without stromal cells in the presence or absence of the p62-ZZ inhibitors (#1-6) for 72 hours. MM cell growth was determined by fluorescence microscopy.

| Compound | IL-6 production by TNF-α stimulated normal human stromal cells (result in words) (IL-6 production) | MM cell growth (result in words) [1] |
| --- | --- | --- |
| CCOc1ccccc1/C=N/Nc1ccc(S(=O)(=O)c2ccc(N/N=C/c3ccccc3OCC)cc2)cc1 [Compound 5] | blocked IL-6 production |  |
| OC[C@@H](O)[C@@H](O)[C@H](O)[C@H](O)C(/C=N/Nc1ccccc1)=N/Nc1ccccc1 [Compound 2] | blocked IL-6 production | directly blocked MM cell growth |
| O=C(O)CNC(=O)c1ccc(NCc2oc(CO)c(CNc3ccc(C(=O)NCC(=O)O)cc3)c(=O)c2O)cc1 [Compound 4] |  | directly blocked MM cell growth |
